The target in test [1] is T1, hSSTR1 (Homo sapiens, UniProt P30872).
T1 construct: expressed in transfected cells; host or cells: CHO-K1 (ATCC), pcDNA3.1, G418-selected clonal line; membranes
In words: Somatostatin receptor radioligand binding assay (hSSTR1).
Experimental: (§1) The affinities of a test compound for the human somatostatin receptors were determined by radioligand binding assays in CHO-K1 cells stably transfected with each of the human somatostatin receptor subtypes, hSSTR1-5. […] Clonal cell lines stably expressing each of the somatostatin receptors were obtained by transfection into CHO-K1 cells (ATCC) and subsequently selected with culture media containing 0.8 mg/mL of G418 (Life Technologies).
(§2) Membranes for in vitro receptor binding assays were obtained by the following procedures. […] The supernatant containing the plasma membranes was centrifuged at 100,000 x g for 30 minutes and the pellet was resuspended in buffer containing 20 mM glycine-glycine, 1 mM MgCl2, 250 mM sucrose, pH 7.2, for storage at -80°C.
(§3) For the SSTR1, 2 and 5 assays, membranes and various concentrations of test compounds were incubated in 96-well plates for 60 minutes at 25°C with 0.05 nM [^125I-Tyr^11]-SRIF-14 (for hSSTR1; PerkinElmer Life Science), 0.05 nM [^125I-Tyr]-seglitide (for hSSTR2; PerkinElmer Life Science) or 0.05 nM [^125I-Tyr]-[DPhe-cyclo(Cys-Tyr-DTrp-Lys-Val-Cys)-Thr-NH2] (for hSSTR5; PerkinElmer Life Science) in 50 mM HEPES, 0.2% BSA, 0.1 mM MgCl2, pH 7.5.
(§4) The incubations were terminated by rapid filtration through GF/C glass microfiber filter plates (pre-wet with 0.3% polyethyleneimine and 0.1 % BSA) using a 96-well cell harvester (Brandel). Plates were washed six times with 1 mL/well aliquots of ice-cold buffer containing 50 mM Tris buffer, pH 7.7. Specific binding was defined as the total radioligand bound minus the bound in the presence of 1000 nM SRIF-14.

The target in test [2] is T2, hSSTR2 (Homo sapiens, UniProt P30874).
T2 construct: host or cells: 'Cells expressing hSSTR2'
The experiment in a line: Somatostatin receptor radioligand binding assay (hSSTR2).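 Also: radioligand displacement on membranes of CHO-K1 cells stably transfected with human SSTR2, specific binding taken as total minus binding left with 1000 nM SRIF-14.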
Experimental: as §1, §2, §3, §4

Test [3] deals with T3, hSSTR5 (Homo sapiens, UniProt P35346).
T3 construct: expressed in transfected cells; host or cells: CHO-K1 (ATCC), pcDNA3.1, G418-selected clonal line; membranes
In words: Somatostatin receptor radioligand binding assay (hSSTR5). Conditions: CHO-K1 cell membranes; 0.05 nM [125I-Tyr]-[DPhe-cyclo(Cys-Tyr-DTrp-Lys-Val-Cys)-Thr-NH2]; 60 minutes at 25°C; read-out: hSSTR5 Ki (nM) ± SEM.
Experimental: as §1, §2, §3, §4

The target of test [4] is T2, hSSTR2. The experiment in a line: Intracellular calcium mobilization assay (FLIPR Calcium 4), hSSTR2.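 As to all read-outs here: agonist activity measured in cells expressing hSSTR2, seeded in 384-well plates, loaded with Calcium 4 dye, read-out as rise in intracellular calcium.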 Conditions: for improvement in EC50 over Reference Compound A: p value (Student's t-test, one-tailed) < 0.05. Format: cell-based.
In test [5] the target is T4, hDRD2 (Homo sapiens, UniProt P14416). In words: cell-based. The arrangement: host or cells: 'Cells expressing hDRD2'. Conditions: for Emax: read-out: hDRD2 %Emax ± SEM.
Experimental: The ability of select compounds according to the present invention to activate hSSTR2 and hDRD2 was determined by the intracellular calcium mobilization assay using FLIPR Calcium 4 assay kit (Molecular Devices).
Cells expressing hSSTR2 or hDRD2 were plated in 384-well microplates in tissue culture media and incubated for 16-24 hours at 37°C in a humidified atmosphere with 5% CO2. Medium was replaced by loading buffer containing Hank's buffered saline, 20 mM HEPES, 2.5 mM probenecid and Calcium 4 dye, and the plates were incubated at 37°C for 60 minutes.
Test [6] has as its target T4, hDRD2. The experiment in a line: biochemical. Format: binding. The arrangement: expressed in transfected cells; host or cells: CHO-K1, pcDNA3.1/GS, zeocin-selected clonal line; membranes.

Results on 6 compounds are retold here after EP2914280B1, “SOMATOSTATIN-DOPAMINE CHIMERIC ANALOGS” (IPSEN PHARMA S.A.S., priority 2012, dated 2014).

Like-named read-outs stand apart in the source and are kept apart here. Numbered stars: 1 amine (or outer) side, 2 acyl side, 3 side chain; on linkers, the order of the positions; unused ones are H or OH. Bridge positions count the residues as written; N and C are the ends. Square brackets hold non-standard residues; d marks the D form. Peptide text beside a SMILES is read from it. * marks the point of attachment. X1 = CN1C[C@H](CSCCN(CCSC[C@@H]2C[C@@H]3c4cccc5[nH]cc(c45)C[C@H]3N(C)C2)[C@H](CCCCN[*:2])C(=O)[*:1])C[C@@H]2c3cccc4[nH]cc(c34)C[C@H]21; X2 = CN1C[C@H](CSCC(=O)*)C[C@@H]2c3cccc4[nH]cc(c34)C[C@H]21; 4Pal = N[C@@H](Cc1ccncc1)C(=O)O
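For Emax in this document: agonist activity at human DRD2 in DRD2-expressing cells, read as intracellular calcium mobilization with a FLIPR Calcium 4 fluorescent dye.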

T1 sequence (P30872 whole entry): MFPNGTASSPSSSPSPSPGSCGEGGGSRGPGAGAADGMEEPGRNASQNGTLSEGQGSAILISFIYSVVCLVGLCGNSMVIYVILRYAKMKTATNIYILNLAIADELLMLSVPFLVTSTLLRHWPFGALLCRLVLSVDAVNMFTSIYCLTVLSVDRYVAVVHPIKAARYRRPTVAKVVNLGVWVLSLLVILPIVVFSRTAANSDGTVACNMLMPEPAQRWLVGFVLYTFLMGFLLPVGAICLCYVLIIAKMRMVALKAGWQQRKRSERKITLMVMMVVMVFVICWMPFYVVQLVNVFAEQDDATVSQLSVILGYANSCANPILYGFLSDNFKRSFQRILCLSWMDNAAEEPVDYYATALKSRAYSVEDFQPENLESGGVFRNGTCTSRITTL
T2 sequence (P30874 whole entry): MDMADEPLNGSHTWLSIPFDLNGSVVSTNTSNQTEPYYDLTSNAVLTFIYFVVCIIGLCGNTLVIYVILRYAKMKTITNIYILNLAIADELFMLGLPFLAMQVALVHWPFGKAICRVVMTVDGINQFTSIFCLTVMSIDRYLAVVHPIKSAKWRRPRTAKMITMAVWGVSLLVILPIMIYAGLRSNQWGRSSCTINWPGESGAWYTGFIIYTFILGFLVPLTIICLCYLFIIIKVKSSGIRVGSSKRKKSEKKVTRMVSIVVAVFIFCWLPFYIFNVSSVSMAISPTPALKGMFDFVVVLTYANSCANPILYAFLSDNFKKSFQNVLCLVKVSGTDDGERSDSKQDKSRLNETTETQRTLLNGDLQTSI
T4 sequence (P14416 whole entry): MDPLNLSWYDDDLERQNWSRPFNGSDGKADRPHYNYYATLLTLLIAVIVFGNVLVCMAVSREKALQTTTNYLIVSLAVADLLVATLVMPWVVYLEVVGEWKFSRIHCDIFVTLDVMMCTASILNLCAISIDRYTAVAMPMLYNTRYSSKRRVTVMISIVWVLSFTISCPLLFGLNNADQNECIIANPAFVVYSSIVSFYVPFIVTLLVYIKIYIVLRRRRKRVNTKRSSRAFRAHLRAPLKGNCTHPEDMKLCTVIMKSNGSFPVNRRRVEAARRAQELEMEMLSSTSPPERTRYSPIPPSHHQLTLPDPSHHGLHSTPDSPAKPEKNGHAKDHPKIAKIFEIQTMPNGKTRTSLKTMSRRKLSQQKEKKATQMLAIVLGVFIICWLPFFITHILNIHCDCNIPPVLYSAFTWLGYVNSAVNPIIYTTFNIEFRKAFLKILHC
T3 sequence (P35346 whole entry): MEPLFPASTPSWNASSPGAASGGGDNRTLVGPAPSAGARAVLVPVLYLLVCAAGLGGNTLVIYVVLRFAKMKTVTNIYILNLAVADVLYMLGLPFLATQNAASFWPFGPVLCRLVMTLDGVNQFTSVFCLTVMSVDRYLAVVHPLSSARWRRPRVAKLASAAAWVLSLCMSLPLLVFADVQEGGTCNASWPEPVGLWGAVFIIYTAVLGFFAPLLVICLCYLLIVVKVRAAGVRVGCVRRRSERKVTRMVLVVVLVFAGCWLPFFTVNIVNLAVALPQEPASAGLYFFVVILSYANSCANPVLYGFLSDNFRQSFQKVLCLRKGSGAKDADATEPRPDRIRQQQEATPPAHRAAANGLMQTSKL

In general, Ki refers to the equilibrium dissociation constant of an inhibitor or competing ligand from its target. Usually EC50 stands for the concentration at which the effect is half-maximal. The term Emax denotes the size of the effect at its maximum, as opposed to the concentration needed. Turning to `C[C@@H](O)[C@@H]1NC(=O)[C@H](CCCCN)NC(=O)[C@@H](Cc2c[nH]c3ccccc23)NC(=O)[C@H](Cc2ccccc2)NC(=O)[C@H](Cc2ccccc2)NC(=O)[C@H](CCCNC(=N)N)NC(=O)[C@H](NC[C@H](Cc2ccc(O)cc2)NC(=O)C[S+]([O-])C[C@@H]2C[C@@H]3c4cccc5[nH]cc(c45)C[C@H]3N(C)C2)CCCCNC(=O)[C@H](Cc2ccc(F)cc2)NC1=O` (stereo partly drawn) [Compound 13, Dop1(SO)-Tyr-psi(CH2NH)-cyclo(DLys-Arg-Phe-Phe-DTrp-Lys-Thr-4FPhe)], the Ki in test [1] was determined as 8.6 nM; in test [2], 0.04 ± 0.02 nM; in test [3], 0.23 nM; in test [6], 32.5 ± 8.9 nM. The EC50 in test [4] was determined as 1.6 ± 0.1 nM; in test [5] it was 9.2 ± 2.7 nM. Further, the Emax in test [5] was 93.9 ± 4.5%.
`C[C@@H](O)[C@@H]1NC(=O)[C@H](CCCCN)NC(=O)[C@@H](Cc2c[nH]c3ccccc23)NC(=O)[C@H](Cc2ccccc2)NC(=O)[C@H](Cc2ccccc2)NC(=O)[C@H](CCCNC(=N)N)NC(=O)[C@H](NCCS(=O)(=O)C[C@@H]2C[C@@H]3c4cccc5[nH]cc(c45)C[C@H]3N(C)C2)CCCCNC(=O)[C@H](Cc2ccc(F)cc2)NC1=O` [Compound 10, Dop1(SO2)-psi(CH2NH)-cyclo(DLys-Arg-Phe-Phe-DTrp-Lys-Thr-4FPhe)]: the Ki in test [1] is 6.6 nM; in test [2], 0.17 ± 0.05 nM; in test [3], 0.16 ± 0.1 nM; in test [6], 56.4 ± 11.2 nM. The EC50 in test [4] came to 19.4 ± 2 nM; in test [5] it was 24 ± 4.5 nM. Besides, the Emax in test [5] amounted to 92.8 ± 4%.
As to `C[C@@H](O)[C@@H]1NC(=O)[C@H](CCCCN)NC(=O)[C@@H](Cc2c[nH]c3ccccc23)NC(=O)[C@H](Cc2ccncc2)NC(=O)[C@H](Cc2ccccc2)NC(=O)[C@H](CCCNC(=N)N)NC(=O)[C@H](NC(=O)CSC[C@@H]2C[C@@H]3c4cccc5[nH]cc(c45)C[C@H]3N(C)C2)CCCCNC(=O)[C@H](Cc2ccccc2)NC1=O` [Compound 24, Dop1-cyclo(DLys-Arg-Phe-4Pal-DTrp-Lys-Thr-Phe)] (X2-[dK]RF[4Pal][dW]KTF; lactam 1-C), the Ki in test [1] (CHO-K1 cell membranes, 0.05 nM [125I-Tyr11]-SRIF-14, 60 minutes at 25°C, read-out: hSSTR1 Ki (nM) ± SEM) was 47.7 ± 30.7 nM; in test [2] (CHO-K1 cell membranes, 0.05 nM [125I-Tyr]-seglitide, 60 minutes at 25°C, read-out: hSSTR2 Ki (nM) ± SEM), 0.08 ± 0.01 nM; in test [3], 2.39 nM; in test [6] (CHO-K1 cell membranes, […] [3H]-spiperone, 60 minutes at 25°C, read-out: hDRD2 Ki (nM) ± SEM) it was 175 ± 25.6 nM. The “improvement in EC50 over Reference Compound A” value in test [4] (receptor not named) was “statistically significant improvement in EC50”. Further, in test [4] (ratio to Reference Compound A, receptor not named, figures fit hSSTR2), the “EC50 value lower than that for Reference Compound A” value is “about 9 fold”. The Emax in test [5] stood at 87.8 ± 4%.
As to `C[C@@H](O)[C@@H]1NC(=O)[C@H](CCCCN)NC(=O)[C@@H](Cc2c[nH]c3ccccc23)NC(=O)[C@H](Cc2ccccc2)NC(=O)[C@H](Cc2ccccc2)NC(=O)[C@H](CCCNC(=N)N)NC(=O)[C@H](NCC[S+]([O-])C[C@@H]2C[C@@H]3c4cccc5[nH]cc(c45)C[C@H]3N(C)C2)CCCCNC(=O)[C@H](Cc2ccc(F)cc2)NC1=O` (stereo partly drawn) [Compound 14, Dop1(SO)-psi(CH2NH)-cyclo(DLys-Arg-Phe-Phe-DTrp-Lys-Thr-4FPhe)], the Ki in test [1] is 6 nM; in test [2], 0.05 ± 0.01 nM; in test [3] it was 0.36 nM; in test [6], 76.5 ± 13.9 nM. Besides, the EC50 was found to be 1.3 ± 0.1 nM in test [4] and 8.7 ± 1.7 nM in test [5]. Besides, the Emax in test [5] amounted to 103 ± 2.3%.
With `C[C@@H](O)[C@@H]1NC(=O)[C@H](CCCCN)NC(=O)[C@@H](Cc2c[nH]c3ccccc23)NC(=O)[C@H](Cc2ccccc2)NC(=O)[C@H](Cc2ccccc2)NC(=O)[C@H](CCCNC(=N)N)NC(=O)[C@H](NC[C@H](Cc2ccc(O)cc2)NC(=O)CSC[C@@H]2C[C@@H]3c4cccc5[nH]cc(c45)C[C@H]3N(C)C2)CCCCNC(=O)[C@H](Cc2ccc(O)cc2)NC1=O` [Compound 33, Dop1-Tyr-psi(CH2NH)-cyclo(DLys-Arg-Phe-Phe-DTrp-Lys-Thr-Tyr)], the Ki is 10.4 ± 3.2 nM in test [1], 0.24 ± 0.1 nM in test [2], 0.82 ± 0.4 nM in test [3] and 15 ± 2.6 nM in test [6]. In addition, the figures for the EC50 in test [4] and in test [5] were 13.8 ± 5 nM and 51.8 ± 20.6 nM, respectively. The “improvement in EC50 and/or %Emax over Reference Compound B” value in test [4] (receptor not named) is reported as “statistically significant improvement in EC50 and/or %Emax”. The maximum response (Emax) in test [5] worked out at 102 ± 12.5%.
For the compound `C[C@@H](O)[C@@H]1NC(=O)[C@H](CCCCN)NC(=O)[C@@H](Cc2c[nH]c3ccccc23)NC(=O)[C@H](Cc2ccncc2)NC(=O)[C@H](Cc2ccccc2)NC(=O)[C@H](CCCNC(=N)N)NC(=O)[C@H](N(CCSC[C@@H]2C[C@@H]3c4cccc5[nH]cc(c45)C[C@H]3N(C)C2)CCSC[C@@H]2C[C@@H]3c4cccc5[nH]cc(c45)C[C@H]3N(C)C2)CCCCNC(=O)[C@H](Cc2ccccc2)NC1=O` [Compound 29, bis[Dop1-psi(CH2N)]-cyclo(DLys-Arg-Phe-4Pal-DTrp-Lys-Thr-Phe)] (RF[4Pal][dW]KTF; linker N-C via X1), the Ki in test [1] is 26.7 nM; in test [2] it was 0.14 ± 0.02 nM; in test [3] it was 2.37 nM; in test [6], 135 ± 66.1 nM. Besides, the EC50 in test [4] was 12.1 ± 0.7 nM; in test [5], 254 ± 111 nM. Further, the “improvement in EC50 over Reference Compound A” value in test [4] (receptor not named) is recorded as “statistically significant improvement in EC50”. The Emax in test [5] came out at 89 ± 4.5%.
